Literature values, collected in PMC6108082 (Journal of medicinal chemistry, 2018).

Tested on: P-glycoprotein

## CCCc1ccc(-c2ccc(N(C[C@@H](N)[C@@H](C)CC)C(=O)[C@@H]3C[C@H]3c3ccccn3)cc2)cc1.Cl [compound 1, 2-PCCA]
  P-glycoprotein substrate activity: substrate of P-glycoprotein
